± gives the expanded uncertainty stated by the source.
Key:
[1] = molar enthalpy of vaporization or sublimation; conditions: 298.15 K; Crystal; Static calorimetry
[2] = 298.15 K, Static calorimetry; for molar enthalpy of sublimation: Crystal

| SMILES | molar enthalpy [1] | molar enthalpy of sublimation [2] | further results |
| --- | --- | --- | --- |
| Oc1cccc(F)c1F [2,3-Difluorophenol] | 16.3 ± 0.717 kcal/mol | – | – |
| Oc1ccc(F)cc1F [2,4-Difluorophenol] | – | – | molar enthalpy of vaporization ([2]; Liquid): 14.1 ± 0.43 kcal/mol |
| Oc1cc(F)ccc1F [2,5-Difluorophenol] | 16.3 ± 0.669 kcal/mol | – | – |
| Oc1c(F)cccc1F [2,6-difluorophenol] | 18.6 ± 0.908 kcal/mol | – | – |

Second part, led by results:

| molar enthalpy [1] | molar enthalpy of sublimation [2] | SMILES | further results |
| --- | --- | --- | --- |
| – | 17.4 ± 0.717 kcal/mol | Oc1ccc(F)c(F)c1 [3,4-Difluorophenol] | – |
| – | 17.4 ± 1.05 kcal/mol | Oc1cc(F)cc(F)c1 [3,5-Difluorophenol] | – |

From the NIST ThermoML archive (doi:10.1016/j.jct.2009.07.011)
